A short description of data set [1]: Ratio of drug level in brain to plasma in rat. To be noted: read-out: BPR. Format: ADME.
A short description of data set [2]: Ratio of drug level in brain to plasma in C57BL6 mouse at 30 mg/kg, po after 1 hr by LC/MS analysis. In kind it is ADME, organism-based. To be noted: read-out: BPR.
Data set [3] is described as follows: Drug uptake in mouse brain up to 20 mg/kg/day, po after 30 to 60 mins by LC/MS analysis relative to plasma. In kind it is ADME, organism-based.
Data set [4] in a line: Drug uptake in mouse CSF up to 20 mg/kg/day, po after 30 to 60 mins by LC/MS analysis relative to brain. Conditions: in vivo. In kind it is ADME, organism-based, Cerebrospinal fluid.
A short description of data set [5]: Drug uptake in mouse brain at 5 mg/kg/day, po after 30 to 60 mins by LC/MS analysis. In kind it is ADME, organism-based. To be noted: in vivo, read-out: Drug uptake.
The nature of data set [6]: Ratio of drug level in plasma to CSF in Alzheimer's disease patient at 50 to 125 mg, po qd for 4 weeks measured 23 to 28 hrs post last dose by LC/MS analysis. In kind it is ADME, organism-based. To be noted: human, in vivo.
In data set [7] the test system is MDR1. The data set can be described thus: Efflux ratio of apparent permeability in MDCK cells expressing human MDR1. In kind it is ADME, cell-based, Canis lupus familiaris. Conditions: dog.
A short description of data set [8]: Unbound Cmax in C57BL/6J mouse brain at 10 mg/kg, sc. Format: ADME, organism-based. To be noted: in vivo.
For data set [9], the system named is Mus musculus. The data set can be described thus: In vivo target occupancy at CK1delta in C57BL/6J mouse CNS at 10 mg/kg, sc. Format: functional.
For data set [10], the system named is Mus musculus. The data set can be described thus: In vivo target occupancy at CK1epsilon in C57BL/6J mouse CNS at 10 mg/kg, sc. Format: functional.
The nature of data set [11]: Ratio of AUC (0 to 3 hrs) in FVB mouse brain to plasma at 1 mg/kg, iv by LC-MS/MS analysis. Format: ADME, organism-based. Conditions: read-out: Ratio AUC.
Data set [12] relates to Rattus norvegicus. The data set can be described thus: In vivo inhibition of Plk2-mediated phosphorylation of alpha-synuclein in Sprague-Dawley rat brain assessed as reduction in pS129-alpha-synuclein levels at 100 mg/kg, po administered as single dose after 6 hrs by sandwich ELISA relative to control. In kind it is functional. A general note: An ELISA detects its analyte on a solid surface through an enzyme-linked reagent.

For data set [13], the system named is Rattus norvegicus. Nature of the data set: In vivo inhibition of Plk2-mediated phosphorylation of alpha-synuclein in Sprague-Dawley rat brain assessed as reduction in pS129-alpha-synuclein levels at 200 mg/kg, po administered as single dose after 6 hrs by sandwich ELISA relative to control. In kind it is functional.
A short description of data set [14]: Ratio of drug level in Sprague-Dawley rat brain to plasma at 100 mg/kg, po administered as single dose after 6 hrs by LC-MS/MS analysis. Format: ADME, organism-based. Conditions: read-out: BPR.
The nature of data set [15]: Ratio of drug level in Sprague-Dawley rat brain to plasma at 200 mg/kg, po administered as single dose after 6 hrs by LC-MS/MS analysis. In kind it is ADME, organism-based. Conditions: read-out: BPR.
Data set [16] has as its system MDR1. The data set can be described thus: Efflux ratio of apparent permeability in MDCK2-MDR1. In kind it is ADME, cell-based, Canis lupus familiaris. To be noted: dog, MDCK-MDR1.
The nature of data set [17]: Efflux ratio of apparent permeability in human Caco2 cells by HPLC-MS/MS analysis. To be noted: Caco-2. Format: ADME, cell-based. For orientation: Passage across Caco-2 layers is used to estimate intestinal permeability.
A short description of data set [18]: Ratio of drug level in brain to plasma in Sprague-Dawley rat at 5 mg/kg, po after 3 hrs by LC-MS/MS analysis. In kind it is ADME, organism-based. Conditions: read-out: BPR.

Structures are written as SMILES.

What is called efflux ratio is a quotient of directional permeabilities that is used to spot active efflux. Broadly, the inhibition in vivo is the share of the control response that was lost under treatment.

As for `COc1ncccc1-c1cnn2ccc(N3CCN(C(=O)OC(C)C)CC3)nc12`, the Kp in data set [1] is more than 2.

As for `Cc1ccc(C(=O)NNC(=O)c2c(C)cccc2Cl)cc1C#Cc1cnc2ccccc2c1` [VODOBATINIB], the Kp at 1 h in [2] is 0.4.

Turning to `CN1CCN(CCOc2cc(OC3CCOCC3)c3c(Nc4c(Cl)ccc5c4OCO5)ncnc3c2)CC1` [SARACATINIB], the Drug uptake was found to be 50% in data set [3] and 35% in data set [4]. The concentration in data set [5] was found to be 50 nM. Further, in data set [6], the Ratio turned out to be 0.4.

Turning to `Nc1nccc(-c2c(-c3ccc(F)cc3)ncn2C2CCN(Cc3ccon3)CC2)n1`, the efflux ratio with MDR1 [7] is 3.2. The molecule further gave a fCmax in [8] of 117 nM. Also, the Occ in the data set on Mus musculus [9] was 88%; in the data set with Mus musculus [10], 58%.

`CN(CCNc1ccn2ncc(-c3ccc(C(N)=O)cc3)c2n1)C(=O)OC(C)(C)C`: the Kp in data set [1] worked out at 0.007.

Consider `CC[C@@]12COCCN1c1nc(-n3ccnc3-c3ccccc3)ncc1N(C)C2=O`, for which the Kp in data set [11] worked out at 0.3. Also, the inhibition in vivo at 100 mg/kg in the data set on Rattus norvegicus [12] is 34.5%. For the same molecule, the inhibition in vivo at 200 mg/kg in the data set on Rattus norvegicus [13] was 41.4%. Moreover, the Kp at 6 h in data set [14] worked out at 0.42; in [15], 0.46.

`CN1C(=O)[C@@H](NC(=O)c2nnc(Cc3ccccc3)o2)COc2cccnc21`: in the data set on MDR1 [16], the efflux ratio was less than 2.

Consider `CN1CCN(c2cc(-c3ccncc3)c(-c3ccc4ccccc4c3)nn2)CC1` [MW-150], for which the efflux ratio in [17] came out at 0.9. In data set [18], the Kp at 3 h was more than 0.9.

For the origin of these results see ChEMBL document CHEMBL4118171, “Brain penetrant kinase inhibitors: Learning from kinase neuroscience discovery” (Bioorg Med Chem Lett, 2018).
